Experimental data: patent publication US6706664B1, “Benzoxazole compounds, process for the preparation thereof and herbicides” (UBE Industries, Ltd., priority 1999, dated 2004)

Key:
Set-up in all cases: key: 0: normal development; 1: Less damaged; 2: Slightly damaged; 3: Moderately damaged; 4: Severely damaged; 5: All killed
young rice plant = assay: Herbicidal test for paddy field; type: in vivo; conditions: paddy field pot, 500 g/ha dropwise at 1.5 leaf stage of barnyardgrass, 3 weeks, rank vs non-treated
Experimental: (§1) Wagner pots, each having an area of 1/5000 are, were packed with Ube soil (alluvial soil) and planted with seeds or tubers of young rice plant, barnyardgrass, bulrush, flat sedge and monochoria. Then, the pots were filled with water to a depth of 3 cm.
(§2) Each wettable powder of the desired compounds (I) shown in Table 1 prepared in accordance with Example 2 was diluted with water containing a surfactant (0.05%) and subjected to dropwise addition treatment by using pipet so that an effective concentration of the compound (I) in each herbicide became 500 g/ha at 1.5 leaf stage of barnyardgrass.
(§3) These plants were controlled in a glass house at an average temperature of 25° C. for 3 weeks, and then herbicidal effects thereof were investigated.
(§4) The herbicidal effects are evaluated according to the following 6 ranks as compared with non-treated district.
(§5) (0: normal development, 1: Less damaged, 2: Slightly damaged, 3: Moderately damaged, 4: Severely damaged, 5: All killed).

barnyardgrass [1] = assay: Herbicidal test for paddy field; type: in vivo, Echinochloa crusgalli; conditions: paddy field pot, 500 g/ha dropwise at 1.5 leaf stage of barnyardgrass, 3 weeks, rank vs non-treated
Experimental: as §1, §2, §3, §4, §5

bulrush = assay: Herbicidal test for paddy field; type: in vivo, Scrips juncoides; conditions: paddy field pot, 500 g/ha dropwise at 1.5 leaf stage of barnyardgrass, 3 weeks, rank vs non-treated
Experimental: as §1, §2, §3, §4, §5

monochoria = assay: Herbicidal test for paddy field; type: in vivo, Monochoria vaginalis; conditions: paddy field pot, 500 g/ha dropwise at 1.5 leaf stage of barnyardgrass, 3 weeks, rank vs non-treated
Experimental: as §1, §2, §3, §4, §5

corn [2] = assay: Soil treatment test for upland field; type: in vivo; conditions: 500 g/ha, glass house 25° C., 3 weeks
Excerpt: as §5
(§6) Wagner pots, each having an area of 1/5000 are, were packed with Ube soil (alluvial soil), and then each seed of corn, soybean, cotton, wheat, solgum, sugar beat, Large crabgrass, barnyardgrass, green foxtail, blackgrass, annual bluegrass, common lambsquartes, livid amaranth and velvetleaf were planted and covered with soil.
(§7) Each wettable powder of the desired compounds (I) shown in Table 1 prepared in accordance with Example 2 was diluted with water containing a surfactant (0.05%) and uniformly sprayed on the surface of each soil so that an effective concentration of the compound (I) in each herbicide became 500 g/ha. These plants were controlled in a glass house at an average temperature of 25° C. for 3 weeks, and then herbicidal effects thereof were investigated.
(§8) The herbicidal effects were evaluated according to the evaluation method described in the above (1).

cotton = assay: Soil treatment test for upland field; type: in vivo; conditions: 500 g/ha, glass house 25° C., 3 weeks
Excerpt: as §5, §6, §7, §8

solgum [3] = assay: Soil treatment test for upland field; type: in vivo; conditions: 500 g/ha, glass house 25° C., 3 weeks
Excerpt: as §5, §6, §7, §8

soybean = assay: Soil treatment test for upland field; type: in vivo; conditions: 500 g/ha, glass house 25° C., 3 weeks
Excerpt: as §5, §6, §7, §8

sugar beat [4] = assay: Soil treatment test for upland field; type: in vivo; conditions: 500 g/ha, glass house 25° C., 3 weeks
Excerpt: as §5, §6, §7, §8

wheat [5] = assay: Soil treatment test for upland field; type: in vivo; conditions: 500 g/ha, glass house 25° C., 3 weeks
Excerpt: as §5, §6, §7, §8

Large crabgrass = assay: Soil treatment test for upland field; type: in vivo, Digitaria adscendens; conditions: 500 g/ha, glass house 25° C., 3 weeks
Excerpt: as §5, §6, §7, §8

barnyardgrass [6] = assay: Soil treatment test for upland field; type: in vivo, Echinochloa crusgalli; conditions: 500 g/ha, glass house 25° C., 3 weeks
Excerpt: as §5, §6, §7, §8

green foxtail [7] = assay: Soil treatment test for upland field; type: in vivo, Setaria viridis; conditions: 500 g/ha, glass house 25° C., 3 weeks
Excerpt: as §5, §6, §7, §8

annual bluegrass = assay: Soil treatment test for upland field; type: in vivo, Poa annua; conditions: 500 g/ha, glass house 25° C., 3 weeks
Excerpt: as §5, §6, §7, §8

common lambsquartes = assay: Soil treatment test for upland field; type: in vivo, Chenopodium album; conditions: 500 g/ha, glass house 25° C., 3 weeks
Excerpt: as §5, §6, §7, §8

livid amaranth [8] = assay: Soil treatment test for upland field; type: in vivo, Amaranthus lividus; conditions: 500 g/ha, glass house 25° C., 3 weeks
Excerpt: as §5, §6, §7, §8

velvetleaf [9] = assay: Soil treatment test for upland field; type: in vivo, Abutilon theophrasti; conditions: 500 g/ha, glass house 25° C., 3 weeks
Excerpt: as §5, §6, §7, §8

corn [10] = assay: Foliar spread test for upland field; type: in vivo; conditions: foliar spray 500 ppm, 3 weeks, rank vs non-treated
Excerpt: as §5
(§9) Wagner pots, each having an area of 1/5000 are, were packed with volcanic ash soil and then each seed of corn, soybean, cotton, wheat, solgum, sugar beat, Large crabgrass, barnyardgrass, green foxtail, blackgrass, annual bluegrass, common lambsquartes, livid amaranth, velvetleaf and morning glory was planted, covered with soil and grown in a glass house at an average temperature of […] for about 2 weeks.
(§10) Each wettable powder of the desired compounds (I) shown in Table 1 prepared in accordance with Example 2 was diluted to 500 ppm with water containing a surfactant (0.5%) and then uniformly sprayed on the above respective plants.
(§11) After these plants were controlled in a glass house at an average temperature of 25° C. for 3 weeks, the herbicidal effects thereof were investigated.
as §8

solgum [11] = assay: Foliar spread test for upland field; type: in vivo; conditions: foliar spray 500 ppm, 3 weeks, rank vs non-treated
Excerpt: as §5, §9, §10, §11, §8

sugar beat [12] = assay: Foliar spread test for upland field; type: in vivo; conditions: foliar spray 500 ppm, 3 weeks, rank vs non-treated
Excerpt: as §5, §9, §10, §11, §8

wheat [13] = assay: Foliar spread test for upland field; type: in vivo; conditions: foliar spray 500 ppm, 3 weeks, rank vs non-treated
Excerpt: as §5, §9, §10, §11, §8

green foxtail [14] = assay: Foliar spread test for upland field; type: in vivo, Setaria viridis; conditions: foliar spray 500 ppm, 3 weeks, rank vs non-treated
Excerpt: as §5, §9, §10, §11, §8

livid amaranth [15] = assay: Foliar spread test for upland field; type: in vivo, Amaranthus lividus; conditions: foliar spray 500 ppm, 3 weeks, rank vs non-treated
Excerpt: as §5, §9, §10, §11, §8

velvetleaf [16] = assay: Foliar spread test for upland field; type: in vivo, Abutilon theophrasti; conditions: foliar spray 500 ppm, 3 weeks, rank vs non-treated
Excerpt: as §5, §9, §10, §11, §8

blackgrass = assay: Soil treatment test for upland field; type: in vivo, Alopecurus aegualis; conditions: 500 g/ha, glass house 25° C., 3 weeks
Excerpt: as §5, §6, §7, §8

SMILES	Effect Young rice plant (young rice plant)	Effect Barnyardgrass (barnyardgrass [1])	Effect Bulrush (bulrush)	Effect Monochoria (monochoria)	Effects Corn (corn [2])	Effects Cotton (cotton)	Effects Solgum (solgum [3])	Effects Soybean (soybean)	Effects Sugar beat (sugar beat [4])	Effects Wheat (wheat [5])	Effects Large crabgrass (Large crabgrass)	Effects Barnyardgrass (barnyardgrass [6])	Effects Green foxtail (green foxtail [7])	Effects Annual bluegrass (annual bluegrass)	Effects Common lambsquarters (common lambsquartes)	Effects Livid amaranth (livid amaranth [8])	Effects Velvetleaf (velvetleaf [9])	Effects Blackgrass (blackgrass)	also measured
CCC(Oc1ccc(F)c(C(F)(F)F)c1)c1nc2ccc(F)cc2o1 (centres unmarked) [Compound 27]	0	1	4	5	0	0	0	0	1	0	4	1	4	3	3	5	1	–	–
CCCC(Oc1cccc(C#N)c1)c1nc2cc(S(C)(=O)=O)c(C)cc2o1 (centres unmarked) [Compound 492]	0	2	3	5	–	–	–	–	–	–	–	–	–	–	–	–	–	–	Effects Corn (corn [10]): 1; Effects Solgum (solgum [11]): 1; Effects Sugar beat (sugar beat [12]): 4; Effects Wheat (wheat [13]): 1; Effects Green foxtail (green foxtail [14]): 2; Effects Livid amaranth (livid amaranth [15]): 4; Effects Velvetleaf (velvetleaf [16]): 3
CCC(Oc1cccc(C(F)(F)F)c1)c1nc2ccc(Cl)cc2o1 (centres unmarked) [Compound 10]	0	4	3	1	0	0	0	0	0	0	5	2	4	4	2	4	–	2	–
CCC(Oc1cccc(C(F)(F)F)c1)c1nc2cc(C(F)(F)F)ccc2o1 (centres unmarked) [Compound 198]	1	4	1	5	2	1	2	–	5	1	5	4	5	5	4	5	3	5	–
CCC(Oc1ccc(F)c(C(F)(F)F)c1)c1nc2ccc(Cl)cc2o1 (centres unmarked) [Compound 9]	0	3	3	4	0	0	0	0	2	0	5	4	5	4	3	5	–	3	–
CCC(Oc1ccc(F)c(C(F)(F)F)c1)c1nc2cc(C#N)c(Cl)cc2o1 (centres unmarked) [Compound 517]	2	3	3	3	0	0	0	0	5	0	3	3	4	–	3	5	3	–	–
